Literature values in patent US20110020841A1, “CENTROSOME AMPLIFICATION AS A BIOSENSOR FOR DNA DAMAGE” (National University of Ireland, Galway, priority 2006, published 2011).

Tested on: Chk1 kinase
Settings: inhibition of Chk1 kinase with the drug; vertebrate cells; reference 11

Compound: CN[C@@H]1C[C@H]2O[C@@](C)([C@@H]1OC)n1c3ccccc3c3c4c(c5c6ccccc6n2c5c31)C(=O)N[C@@H]4O [UCN-01]
- DNA damage-induced centrosome amplification: suppresses DNA damage-centrosome amplification
